Measurements published in patent US12275731B2, “Azaindole inhibitors of wild-type and mutant forms of LRRK2” (DANA-FARBER CANCER INSTITUTE, INC., priority 2018, dated 2025).

What was measured:
Test in all cases: KinomeScan profiling
Assay type in all cases: binding
[1] = target: T1, RSK1(Kin.Dom.2-C-terminal) (Homo sapiens, UniProt Q15418); conditions: read-out: % control
T1 construct: RSK1(Kin.Dom.2-C-terminal)
Summary of the method: (§1)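 Compounds were screened at 1 μM in DMSO across a 468-kinase KinomeScan panel. Binding was expressed as % control, scaled between a positive control (0%) and DMSO (100%) using luminescence signal. A value under 35% counted as active.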

ERK4 = ERK4 (Homo sapiens, UniProt P31152); conditions: ERK4, 1 μM; read-out: % control
Sequence of ERK4 (P31152 whole entry): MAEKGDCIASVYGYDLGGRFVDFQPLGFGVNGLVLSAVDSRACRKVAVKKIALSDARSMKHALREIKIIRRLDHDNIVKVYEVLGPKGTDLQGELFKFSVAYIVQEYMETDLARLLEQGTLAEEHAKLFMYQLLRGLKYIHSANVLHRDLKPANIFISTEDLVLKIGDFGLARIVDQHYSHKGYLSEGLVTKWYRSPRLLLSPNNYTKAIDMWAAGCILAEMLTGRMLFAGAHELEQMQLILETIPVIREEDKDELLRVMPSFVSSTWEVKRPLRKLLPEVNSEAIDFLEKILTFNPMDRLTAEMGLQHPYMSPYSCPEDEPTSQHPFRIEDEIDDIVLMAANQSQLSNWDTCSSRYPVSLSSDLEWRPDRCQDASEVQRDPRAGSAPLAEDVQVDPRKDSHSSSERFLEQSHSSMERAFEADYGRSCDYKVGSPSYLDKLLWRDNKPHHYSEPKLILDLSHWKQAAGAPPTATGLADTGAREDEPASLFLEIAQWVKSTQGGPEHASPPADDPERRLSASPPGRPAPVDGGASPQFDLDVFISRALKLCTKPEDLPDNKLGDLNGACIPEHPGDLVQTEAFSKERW
Summary of the method: as §1

MST2 = target: T2, MST2 (Homo sapiens, UniProt Q13188); conditions: MST2, 1 μM; read-out: % control
T2 sequence (Q13188 1-491): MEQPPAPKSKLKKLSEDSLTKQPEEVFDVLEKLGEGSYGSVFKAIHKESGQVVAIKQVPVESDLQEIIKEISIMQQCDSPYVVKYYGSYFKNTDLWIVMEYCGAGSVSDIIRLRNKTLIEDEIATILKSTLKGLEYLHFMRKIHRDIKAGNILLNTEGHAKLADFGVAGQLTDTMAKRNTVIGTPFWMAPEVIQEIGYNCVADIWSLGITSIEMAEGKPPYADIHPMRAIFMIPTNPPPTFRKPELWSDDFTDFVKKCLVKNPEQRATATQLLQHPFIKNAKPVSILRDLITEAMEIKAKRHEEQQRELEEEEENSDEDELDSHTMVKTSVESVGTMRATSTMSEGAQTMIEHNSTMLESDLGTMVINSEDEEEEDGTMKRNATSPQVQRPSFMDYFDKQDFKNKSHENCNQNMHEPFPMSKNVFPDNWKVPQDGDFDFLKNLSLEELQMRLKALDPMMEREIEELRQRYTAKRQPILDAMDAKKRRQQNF
Summary of the method: as §1

ERN1 = ERN1 (Homo sapiens, UniProt O75460); conditions: ERN1, 1 μM; read-out: % control
Sequence of ERN1 (O75460 19-977): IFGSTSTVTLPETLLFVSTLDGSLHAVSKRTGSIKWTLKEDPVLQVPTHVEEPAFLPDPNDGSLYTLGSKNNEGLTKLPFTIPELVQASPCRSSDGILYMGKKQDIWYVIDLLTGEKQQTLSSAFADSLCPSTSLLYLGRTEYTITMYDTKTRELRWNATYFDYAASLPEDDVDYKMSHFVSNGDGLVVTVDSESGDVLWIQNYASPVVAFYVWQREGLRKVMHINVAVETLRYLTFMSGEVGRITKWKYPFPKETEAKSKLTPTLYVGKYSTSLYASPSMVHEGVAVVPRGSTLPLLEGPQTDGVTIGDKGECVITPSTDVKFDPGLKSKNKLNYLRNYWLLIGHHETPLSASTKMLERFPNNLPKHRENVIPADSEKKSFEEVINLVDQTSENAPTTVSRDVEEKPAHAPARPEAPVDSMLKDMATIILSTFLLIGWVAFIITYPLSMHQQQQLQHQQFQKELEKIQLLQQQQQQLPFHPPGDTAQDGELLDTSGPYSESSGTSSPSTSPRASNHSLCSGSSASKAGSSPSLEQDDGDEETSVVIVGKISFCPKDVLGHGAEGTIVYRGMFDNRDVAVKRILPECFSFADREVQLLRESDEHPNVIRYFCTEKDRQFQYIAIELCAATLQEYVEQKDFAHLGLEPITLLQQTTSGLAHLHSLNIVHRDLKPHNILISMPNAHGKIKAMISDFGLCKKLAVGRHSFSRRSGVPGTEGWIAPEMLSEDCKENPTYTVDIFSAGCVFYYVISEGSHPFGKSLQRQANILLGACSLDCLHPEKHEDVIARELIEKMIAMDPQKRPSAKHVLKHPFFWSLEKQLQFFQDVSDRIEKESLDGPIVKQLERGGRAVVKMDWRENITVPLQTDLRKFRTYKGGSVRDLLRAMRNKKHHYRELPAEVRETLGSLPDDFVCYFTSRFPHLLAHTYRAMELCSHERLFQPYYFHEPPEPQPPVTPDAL
Summary of the method: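 Percent-of-control values derive from RLU, calculated as (test − positive)/(negative − positive) × 100, where DMSO defines 100% and a positive control compound defines 0%. Each compound was tested at 1 μM in the 468-kinase panel; sub-35% readings indicate activity.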

LZK = target: T3, LZK (Homo sapiens, UniProt O43283); conditions: read-out: % control
T3 sequence (O43283 1-966): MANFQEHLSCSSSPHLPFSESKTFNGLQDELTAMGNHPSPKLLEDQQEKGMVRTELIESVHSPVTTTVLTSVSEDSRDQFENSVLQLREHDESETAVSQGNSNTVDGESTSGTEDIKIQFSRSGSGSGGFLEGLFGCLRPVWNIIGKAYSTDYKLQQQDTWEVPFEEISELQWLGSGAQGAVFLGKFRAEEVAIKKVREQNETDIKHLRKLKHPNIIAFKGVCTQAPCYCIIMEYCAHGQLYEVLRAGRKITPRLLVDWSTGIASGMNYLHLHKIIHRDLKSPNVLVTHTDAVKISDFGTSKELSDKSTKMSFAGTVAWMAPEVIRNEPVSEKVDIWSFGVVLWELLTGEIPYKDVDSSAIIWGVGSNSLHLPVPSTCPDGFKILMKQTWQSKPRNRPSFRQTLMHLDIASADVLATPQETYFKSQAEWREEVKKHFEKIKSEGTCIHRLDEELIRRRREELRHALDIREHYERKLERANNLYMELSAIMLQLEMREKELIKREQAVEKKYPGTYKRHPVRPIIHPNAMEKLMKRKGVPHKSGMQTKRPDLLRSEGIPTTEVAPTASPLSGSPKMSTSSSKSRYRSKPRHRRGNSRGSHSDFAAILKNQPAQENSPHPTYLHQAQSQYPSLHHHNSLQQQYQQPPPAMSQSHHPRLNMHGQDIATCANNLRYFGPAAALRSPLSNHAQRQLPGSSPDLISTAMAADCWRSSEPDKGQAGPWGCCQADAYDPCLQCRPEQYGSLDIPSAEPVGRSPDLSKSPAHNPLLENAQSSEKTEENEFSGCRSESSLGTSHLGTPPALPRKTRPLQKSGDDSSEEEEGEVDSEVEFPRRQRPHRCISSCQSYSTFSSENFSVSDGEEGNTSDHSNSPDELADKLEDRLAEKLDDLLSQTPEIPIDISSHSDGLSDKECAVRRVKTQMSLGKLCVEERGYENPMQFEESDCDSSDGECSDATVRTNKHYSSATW
Summary of the method: as §1

EPHA6 = target: T4, EPHA6 (Homo sapiens, UniProt Q9UF33); conditions: EPHA6, 1 μM; read-out: % control
T4 sequence (Q9UF33 23-1036): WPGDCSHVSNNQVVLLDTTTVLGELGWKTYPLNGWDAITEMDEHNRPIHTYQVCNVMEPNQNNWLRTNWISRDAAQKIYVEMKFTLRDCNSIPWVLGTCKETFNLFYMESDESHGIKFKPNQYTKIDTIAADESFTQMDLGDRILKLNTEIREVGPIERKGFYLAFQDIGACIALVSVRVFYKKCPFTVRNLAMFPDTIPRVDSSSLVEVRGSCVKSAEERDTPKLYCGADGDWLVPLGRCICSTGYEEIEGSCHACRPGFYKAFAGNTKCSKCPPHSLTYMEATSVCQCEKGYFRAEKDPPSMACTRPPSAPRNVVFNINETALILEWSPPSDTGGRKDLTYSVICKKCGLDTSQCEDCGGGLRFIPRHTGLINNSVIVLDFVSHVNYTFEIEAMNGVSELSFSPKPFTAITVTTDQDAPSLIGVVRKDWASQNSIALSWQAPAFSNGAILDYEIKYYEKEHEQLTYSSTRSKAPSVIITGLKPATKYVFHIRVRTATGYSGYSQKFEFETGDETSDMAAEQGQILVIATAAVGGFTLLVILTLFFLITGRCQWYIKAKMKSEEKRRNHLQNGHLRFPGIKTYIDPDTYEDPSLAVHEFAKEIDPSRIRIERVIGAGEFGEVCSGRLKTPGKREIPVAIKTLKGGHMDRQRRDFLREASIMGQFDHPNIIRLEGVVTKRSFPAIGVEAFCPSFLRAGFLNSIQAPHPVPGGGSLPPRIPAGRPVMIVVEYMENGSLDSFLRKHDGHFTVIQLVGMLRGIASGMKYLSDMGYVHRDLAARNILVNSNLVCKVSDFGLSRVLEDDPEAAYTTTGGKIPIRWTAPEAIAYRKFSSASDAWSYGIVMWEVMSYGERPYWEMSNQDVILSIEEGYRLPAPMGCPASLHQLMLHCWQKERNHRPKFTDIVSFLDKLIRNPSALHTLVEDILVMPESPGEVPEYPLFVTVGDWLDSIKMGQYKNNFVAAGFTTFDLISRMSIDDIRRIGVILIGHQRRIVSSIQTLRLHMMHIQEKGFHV
Summary of the method: as §1

T1 sequence (Q15418 418-675 limits assumed): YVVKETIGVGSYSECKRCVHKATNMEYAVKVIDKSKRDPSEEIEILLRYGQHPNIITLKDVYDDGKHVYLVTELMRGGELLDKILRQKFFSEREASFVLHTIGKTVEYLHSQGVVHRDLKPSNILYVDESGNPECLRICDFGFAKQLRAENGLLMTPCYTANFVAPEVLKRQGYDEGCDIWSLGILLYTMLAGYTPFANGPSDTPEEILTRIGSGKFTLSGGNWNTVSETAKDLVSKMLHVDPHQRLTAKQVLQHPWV

SMILES	remaining binding at 1 µM [1] [%]	remaining binding at 1 µM (ERK4) [%]	remaining binding at 1 µM (MST2) [%]	remaining binding at 1 µM (ERN1) [%]	remaining binding at 1 µM (LZK) [%]	remaining binding at 1 µM (EPHA6) [%]
O=C(c1ccc(-c2cnc3[nH]cc(Cl)c3c2NC2CCCC2)cc1)N1CCC(N2CCOCC2)CC1 [Compound 101, (4-(3-chloro-4-(cyclopentylamino)-1H-pyrrolo[2,3-b]pyridin-5-yl)phenyl)(4-morpholinopiperidin-1-yl)methanone]	88	93	74	86	76	43
CNc1c(-c2cnn([C@H]3CCN(C(C)=O)C[C@@H]3F)c2)cnc2[nH]cc(Cl)c12 [Compound 77, 1-((3S,4S)-4-(4-(3-chloro-4-(methylamino)-1H-pyrrolo[2,3-b]pyridin-5-yl)-1H-pyrazol-1-yl)-3-fluoropiperidin-1-yl)ethan-1-one]	99	90	100	56	61	93
CNc1c(-c2ccc(C(=O)N3CCC(N4CCOCC4)CC3)cc2)cnc2[nH]cc(Cl)c12 [Compound 96, (4-(3-chloro-4-(methylamino)-1H-pyrrolo[2,3-b]pyridin-5-yl)phenyl)(4-morpholinopiperidin-1-yl)methanone]	100	94	99	73	89	98
